Target: T1, WT CFTR (Homo sapiens, UniProt P13569)
T1 construct: expressed in transfected cells; host or cells: Xenopus laevis oocytes injected with cRNA transcribed from pGEMHE-CFTR
Test: Single-channel recording in excised inside-out patches, kinetic analysis of microscopic patches
Type: biochemical
Protocol: Patch pipette solution contained (in mM): 136 NMDG-Cl, 2 MgCl2, 5 HEPES, pH = 7.4 with NMDG. Bath solution contained (in mM): 134 NMDG-Cl, 2 MgCl2, 5 HEPES, 0.5 EGTA, pH = 7.1 with NMDG. MgATP (2 mM) was added from a 400 mM aqueous stock solution (pH = 7.1 with NMDG). Before each experiment 300 nM catalytic subunit of PKA (Sigma-Aldrich Kft., Budapest, Hungary) was applied for ~1 min to phosphorylate CFTR channels. Vx-770 (Selleck Chemicals) was diluted into the bath solution either from a ‘1x saturated’ aqueous stock solution (see above, concentration ~62 nM), or from a commercially obtained 10 mM stock dissolved in DMSO (Selleck Chemicals). Following patch excision the patch pipette was moved into a flow chamber, and recordings were done under continuous superfusion of the cytosolic patch surface. Solution compositions were exchanged using computer-driven electronic valves (solution exchange time constant <50 ms). After each recording day perfusion tubings were extensively washed with distilled water. Although supersaturated solutions of Vx-770 were not employed here, any perfusion tubing that had ever been in contact with a given concentration of Vx-770 was subsequently used only for solutions that contained the same, or higher, concentrations of the drug. After every 5–6 experimental days the entire perfusion system was replaced. Currents were recorded at 25°C, at a membrane potential of −40 mV, digitized at 10 kHz, Gaussian-filtered at 2 kHz, and recorded to disk (Axopatch 200B, Digidata 1322A, Pclamp9 (Molecular Devices, RRID: SCR_011323)). For display purposes, currents are shown filtered at 10 Hz and sampled at 20 Hz, and expanded single-channel traces (Figure 2b, Figure 4d) are shown filtered at 50 Hz and sampled at 250 Hz.
Segments of current recording originating from 1 to 7 active channels were digitally filtered at 50 Hz, and idealized by half-amplitude threshold crossing. Steady-state open probabilities in 2 mM ATP, before or during application of Vx-770 or after its removal (Figure 2c), were calculated from the events lists as the time-average of the fraction of open channels. A closed-open-blocked (C-O-B) kinetic scheme, which separates brief (~10 ms) flickery closures (to state B) from long (~1 s) interburst closures (to state C), was fitted by maximum likelihood to the set of dwell-time histograms for all conductance levels, to obtain microscopic transition rates rCO, rOC, rOB, and rBO, while accounting for a fixed dead time of 6 ms ([Csanády, 2000]). The software is freely available upon request. Mean burst (τb) and interburst (τib) durations were calculated as τb=(1/rOC)(1 + rOB/rBO) and τib=1/rCO, and channel opening and closing rates (Figure 2c) defined as 1/τib and 1/τb, respectively. […]

[1] = single channel, 0.05x saturated (~3 nM) Vx-770

T1 sequence (P13569 whole entry): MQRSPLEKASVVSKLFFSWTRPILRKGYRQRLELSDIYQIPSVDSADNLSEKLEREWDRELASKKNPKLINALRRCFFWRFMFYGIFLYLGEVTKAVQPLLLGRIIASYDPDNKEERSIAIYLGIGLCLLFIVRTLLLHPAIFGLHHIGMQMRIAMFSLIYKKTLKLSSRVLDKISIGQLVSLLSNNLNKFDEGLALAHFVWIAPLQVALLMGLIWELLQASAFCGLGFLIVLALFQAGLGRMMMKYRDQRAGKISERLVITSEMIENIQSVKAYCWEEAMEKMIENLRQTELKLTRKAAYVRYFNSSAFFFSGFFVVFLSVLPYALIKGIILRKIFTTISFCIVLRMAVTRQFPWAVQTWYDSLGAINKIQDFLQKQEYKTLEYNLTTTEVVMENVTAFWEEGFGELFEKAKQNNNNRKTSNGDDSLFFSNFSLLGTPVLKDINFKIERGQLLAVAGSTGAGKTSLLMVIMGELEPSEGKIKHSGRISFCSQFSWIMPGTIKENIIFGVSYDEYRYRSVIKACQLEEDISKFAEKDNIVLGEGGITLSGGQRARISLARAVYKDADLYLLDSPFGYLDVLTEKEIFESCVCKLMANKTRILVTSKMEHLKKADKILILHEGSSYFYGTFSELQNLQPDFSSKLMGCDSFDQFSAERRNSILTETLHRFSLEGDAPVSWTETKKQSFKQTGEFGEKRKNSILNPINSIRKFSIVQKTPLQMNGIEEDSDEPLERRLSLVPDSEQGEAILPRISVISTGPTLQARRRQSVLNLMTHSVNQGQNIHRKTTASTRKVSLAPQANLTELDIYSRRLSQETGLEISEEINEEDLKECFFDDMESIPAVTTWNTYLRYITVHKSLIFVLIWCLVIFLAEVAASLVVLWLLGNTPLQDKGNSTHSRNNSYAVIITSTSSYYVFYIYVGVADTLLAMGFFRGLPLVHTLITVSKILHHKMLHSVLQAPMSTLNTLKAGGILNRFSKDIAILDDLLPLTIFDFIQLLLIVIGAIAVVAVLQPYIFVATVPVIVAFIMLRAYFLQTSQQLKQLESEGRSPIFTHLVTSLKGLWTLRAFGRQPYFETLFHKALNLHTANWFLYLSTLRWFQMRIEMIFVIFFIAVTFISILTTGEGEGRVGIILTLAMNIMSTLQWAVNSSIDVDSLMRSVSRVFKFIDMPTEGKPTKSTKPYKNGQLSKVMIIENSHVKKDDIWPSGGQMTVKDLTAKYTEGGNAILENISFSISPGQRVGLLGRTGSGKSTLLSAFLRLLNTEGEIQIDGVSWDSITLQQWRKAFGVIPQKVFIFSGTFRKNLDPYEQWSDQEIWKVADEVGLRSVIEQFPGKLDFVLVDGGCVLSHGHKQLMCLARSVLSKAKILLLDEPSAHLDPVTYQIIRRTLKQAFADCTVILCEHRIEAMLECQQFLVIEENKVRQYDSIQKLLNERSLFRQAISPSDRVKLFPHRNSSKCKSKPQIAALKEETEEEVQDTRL

stimulation of open probability (0.05x saturated (~3 nM) Vx-770 (20-fold dilution of 1x stock), 2 mM ATP): ~ 4 fold
reversibility of effects on channel gating (following washout of 0.05x saturated Vx-770): fully reversible
time of switch back to low-activity gating after drug removal [1]: ~ 5 min
time of switch from low- to high-activity gating after initiation of drug exposure [1]: ~ 3 min
SMILES: CC(C)(C)c1cc(C(C)(C)C)c(NC(=O)c2c[nH]c3ccccc3c2=O)cc1O [Vx-770, ivacaftor]

— article PMC6594753, “Cystic fibrosis drug ivacaftor stimulates CFTR channels at picomolar concentrations” (eLife, 2019)
